Source: patent US5922871A, “Terephthalamide derivatives” (Dongwha Pharmaceutical Ind. Co., Ltd., priority 1997, dated 1999)

What was measured:
[1] = molecular target: T1, HIV reverse transcriptase (HIV-RT) (Human immunodeficiency virus type 1 group M subtype B, UniProt P04585); test: in vitro inhibition test against HIV reverse transcriptase; type: biochemical, HIV (AIDS virus); details: read-out: Inhibitory effect of HIV-RT; for inhibition at 0.1 µg/mL: 0.1 μg/ml; for inhibition at 1 µg/mL: 1 μg/ml
T1 construct: purchased Boehringer Mannheim
Method: Experiment 3: The in vitro inhibition test against HIV reverse transcriptase
The inhibitory activity in vitro was measured using a non-radioactive reverse transcriptase assay Kit (Boehringer Mannheim).
At first, 20 μl(40 ng) HIV-RT was added to the wells coated with streptavidin and with the addition of 20 μl, reaction mixture containing template/primer hybrid poly(A)/oligo(dT)15 and DIG-(digoxigenin)-dUTP, biotin-dUTP and TTP, 20 μl test compound was added and reacted at 37° C. for 1 hour. The control without test compound was used for the comparison of related activity. Since DNA containing nucleotide labeled with digoxigenin and biotine was prepared by the action of HIV-RT, it was combined with streptavidin coated at the bottom of the wells. After the reaction was completed, remaining impurities were removed by washing each well with 20 μl buffer solution (pH 7.0) for 30 seconds 5 times and with the addition of 200 μl anti-DIG-POD antibody, the mixture was reacted at 37° C. for 1 hour. For the removal of remaining impurities again, the reacting solution was washed with a buffer solution and with the addition of 200μl ABTS™ each, a substrate of POD(peroxidase), the solution was reacted at room temperature for 30 minutes. The absorbance was read by ELISA reader at 405 nm for the assay of reverse transcriptase activity and its inhibition activity.

[2] = molecular target: T2, RNase H of HBV polymerase (HBV-RNase H) (Hepatitis B virus ayw/France/Tiollais/1979, UniProt P03156); test: inhibitory effects against RNase H activity of HBV polymerase; type: biochemical; details: read-out: Inhibitory effect of HBV-RNase H; for inhibition at 0.1 µg/mL: 0.1 μg/ml; for inhibition at 1 µg/mL: 1 μg/ml
T2 construct: amylose/maltose step implies MBP fusion
Method: Experiment 2: The inhibitory effects against RNase H activity of HBV polymerase.
1) Expression of the RNase H domain derived from human HBV polymerase
E.coli NM 522 was transformed by the expression vector pMRH respectively and the transformants were cultured in LB medium at 37° C., overnight. These growing cultures were diluted 1:100, inoculated into a glucose rich medium and incubated until OD600 reached 0.5. Then IPTG (isopropylthiogalactoside) was added into the medium of which the fine concentration was 0.5 mM. The above growing cultures were incubated again at 20° C. for 16 hours and the RNase H domain was expressed.
The above cultured broth was centrifuged for 10 minutes at 3,000 rpm and the cell pellet was washed with 10 ml of TNE column buffer (10 mN Tris-Cl, pH 8.0, 200 mM NaCl, 1 mM EDTA), and resuspended in 10 ml of TNE column buffer. The cells were freezed and thawed 4 times repeatedly, and then disrupted by sonication for 10 seconds 3 times. The crude extract prepared in the above process was centrifuged for 30 minutes at 13,000 rpm, 4° C. and the supernatant was separated. The above process was repeated 2 times and then the supernatant passed the amylose resin. The resin was washed by using column buffer with 50 times of resin volume, and the RNase H domain was eluted by using buffer containing 10 mM maltose.
In addition, the RNase H domain produced from the expression vector pMRH was purified by using histidine tag affinity column, because RNase H has a histidine tag at the C-terminus. The resin (Ni-NTA, QIAGEN) used in the histidine tag affinity column was activated by using sonication buffer (50 mM sodium phosphate, pH 8.0, 300 mM sodium chloride) and 4~5 ml of the activated resin was charged in the glass tube whose diameter was about 1 cm. The protein sample obtained from above description passed the resin at the 0.1 ml/ min flow rate and the column was washed by using washing buffer with the 100~200 times volume of protein sample (50 mM sodium phosphate, pH 6.0, 300 mM sodium chloride, 10% glycerol). The recombinant protein was eluted by washing the column with concentration gradient of 0.01~0.5 M imidazole.
As a result, the active RNase H domain was separated from the histidine tag affinity column at 30 mM concentration of imidazole. The purified RNase H domain was mixed with 50% glycerol for storage at -20° C. after the removal of imidazole from it and employed fol the screening of HBV inhibitors.
2) Preparation of the substrate of the RNase H enzyme
In order to identify the RNase H activity, RNA/DNA complex which can be used as a substrate of the RNase H enzyme was prepared by performing in vitro transcription with […].
3) Screening of active inhibitors against RNase H
The RNase H activity was measured by using recombinant RNase H enzyme and radiolabled RNA/DNA hybrid. In order to measure the RNase H activity, 1 μg of RNase H enzyme and test compound were mixed with buffer solution containing 40 mM Tris-Cl (pH 8.0), 4 mM magnesium chloride, 40 mM potassium chloride and 2 mM DTT. The mixture was pretreated on ice for 10 minutes. After pretreatment is completed, RNA/DNA hybrid was added to incubate at 37° C. for 3 hours. After the reaction was stopped, 7.5 M ammonium acetate in a volume of 1/2 and ethanol in a 3-fold volume were added. The above reaction mixture was incubated at -20° C. for more than 2 hours and centrifuged for 15 minutes at 4° C., 13,000 rpm. The supernatant was obtained and the radioactive signal of supernatant was measured by scintillation counter.
As a control, water was added instead of test compound and the inhibitory activity was calculated to compare with the control, when the radioactivity intensity on each test compound, was obtained.

[3] = molecular target: T3, HBV polymerase reverse transcriptase (HBV-RT) (Hepatitis B virus genotype D subtype ayw, UniProt P03156); test: inhibitory activity against HBV polymerase in vitro (reverse transcriptase activity); type: biochemical; details: read-out: Inhibitory effect of HBV-RT; for inhibition at 0.1 µg/mL: 0.1 μg/ml; for inhibition at 1 µg/mL: 1 μg/ml
T3 construct: made in house; host or cells: E. coli
Description: Experiment 1: The inhibitory activity against HBV polymerase in vitro.
Recently, the inventors of the present invention have produced a recombinant HBV polymerase that is expressed from E.coli transformant, measured its enzyme activity and filed patent applications thereof [Korean Patent Application Nos. 94-3918, 96-33998 and 96-63255].
The inventions have established a method of measuring the reverse transcriptase activity of HBV polymerase in vitro. The fundamental principle is the same as the ELISA method, and after reacting the substrate with biotin- and DIG-modified nucleotide, a method of recognizing the polymerized substrate as anti-DIG antibody with peroxidase was used. […] and 20 μ of test compound were mixed and reacted at 14~30° C. for 18~24 hours. Then, the inhibitory effect of test compound against reverse trascriptase activity in the HBV polymerase was examined, compared with the results of control tests without the test compound.

T2 sequence (P03156 680-832): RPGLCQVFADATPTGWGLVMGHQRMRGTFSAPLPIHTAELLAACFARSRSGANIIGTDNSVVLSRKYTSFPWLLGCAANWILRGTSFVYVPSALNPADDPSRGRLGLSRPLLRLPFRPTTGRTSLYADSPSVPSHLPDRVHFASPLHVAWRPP
T3 sequence (P03156 whole entry): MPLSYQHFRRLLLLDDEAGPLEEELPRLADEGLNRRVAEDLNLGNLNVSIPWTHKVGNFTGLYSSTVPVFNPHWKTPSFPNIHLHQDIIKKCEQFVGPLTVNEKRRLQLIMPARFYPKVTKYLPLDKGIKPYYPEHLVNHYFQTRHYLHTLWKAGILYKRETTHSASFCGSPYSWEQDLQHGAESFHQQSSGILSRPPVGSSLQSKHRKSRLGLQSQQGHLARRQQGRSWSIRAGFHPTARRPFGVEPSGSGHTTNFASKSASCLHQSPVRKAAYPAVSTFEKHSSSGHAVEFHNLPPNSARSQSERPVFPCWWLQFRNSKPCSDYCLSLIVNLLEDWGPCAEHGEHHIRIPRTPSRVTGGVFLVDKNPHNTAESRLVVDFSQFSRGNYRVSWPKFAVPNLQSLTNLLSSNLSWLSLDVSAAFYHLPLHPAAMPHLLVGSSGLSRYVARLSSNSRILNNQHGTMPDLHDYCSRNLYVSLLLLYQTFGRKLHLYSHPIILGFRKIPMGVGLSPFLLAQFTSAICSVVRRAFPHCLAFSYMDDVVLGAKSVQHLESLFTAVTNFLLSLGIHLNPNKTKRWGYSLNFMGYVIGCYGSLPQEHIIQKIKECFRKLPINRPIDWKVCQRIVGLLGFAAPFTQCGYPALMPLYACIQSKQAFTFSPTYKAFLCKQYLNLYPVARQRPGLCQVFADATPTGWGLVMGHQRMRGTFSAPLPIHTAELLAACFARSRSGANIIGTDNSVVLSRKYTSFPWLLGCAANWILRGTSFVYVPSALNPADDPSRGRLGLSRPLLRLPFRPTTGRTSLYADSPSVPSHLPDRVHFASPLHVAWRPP

Row | Compound | inhibition at 0.1 µg/mL [1] [%] | inhibition at 1 µg/mL [1] [%] | inhibition at 0.1 µg/mL [2] [%] | inhibition at 1 µg/mL [2] [%] | inhibition at 0.1 µg/mL [3] [%] | inhibition at 1 µg/mL [3] [%]
1 | CC(C)Nc1cccnc1N1CCN(C(=O)c2ccc(C(=O)N(CCO)CCO)cc2)CC1 [Compound No. 12, 1-[N,N-Bis(2-hydroxyethyl)carbamoyl]-4-[1-[3-(isopropylamino)-2-pyridyl]piperazin-4-yl-carbonyl]benzene] | 46 | 52 | 86 | 91 | 52 | 63
2 | CC(C)Nc1cccnc1N1CCN(C(=O)c2ccc(C(=O)N3CCN(CC(O)CO)CC3)cc2)CC1 (stereo not shown) [Compound No. 31, 4-(2,3-Dihydroxypropyl)-1-[4-[1-[3-(isopropylamino)-2-pyridyl]piperazin-4-yl-carbonyl]benzoyl]piperazine] | – | – | 80 | 85 | 30 | 52
3 | CCN(CCO)C(=O)c1ccc(C(=O)N2CCN(c3ncccc3NC(C)C)CC2)cc1 [Compound No. 6, 1-[N-Ethyl-N-(2-hydroxyethyl)carbamoyl]-4-[1-[3-(isopropylamino)-2-pyridyl]piperazin-4-yl-carbonyl]benzene] | – | – | 55 | 83 | 30 | 51
4 | CC(C)Nc1cccnc1N1CCN(C(=O)c2ccc(C(=O)N(C)CC3OCCO3)cc2)CC1 [Compound No. 71, 1-[N-[(1,3-Dioxolan-2-yl)methyl]-N-methylcarbamoyl]-4-[1-[3-(isopropylamino)-2-pyridyl]piperazin-4-yl-carbonyl]benzene] | 68 | 70 | 56 | 62 | 35 | 51
5 | CC(C)Nc1cccnc1N1CCN(C(=O)c2ccc(C(=O)NCCO)cc2)CC1 [Compound No. 1, 1-[N-(2-Hydroxyethyl)carbamoyl]-4-[1-[3-(isopropylamino)-2-pyridyl]piperazin-4-yl-carbonyl]benzene] | 41 | 62 | 11 | 80 | 53 | 55
6 | CC(C)Nc1cccnc1N1CCN(C(=O)c2ccc(C(=O)N3CCN(CCCO)CC3)cc2)CC1 [Compound No. 27, 4-(3-Hydroxypropyl)-1-[4-[1-[3-(isopropylam-ino)-2-pyridyl]piperazin-4-yl-carbonyl]benzoyl]piperazine] | 40 | 68 | 73 | 81 | – | –
7 | CC(C)Nc1cccnc1N1CCN(C(=O)c2ccc(C(=O)N3CCN(CCO)CC3)cc2)CC1 [Compound No. 26, 4-(2-Hydroxyethyl)-1-[4-[1-[3-(isopropylamino)-2-pyridyl]piperazin-4-yl-carbonyl]benzoyl]piperazine] | 45 | 55 | 66 | 95 | 32 | 54
8 | CC(C)Nc1cccnc1N1CCN(C(=O)c2ccc(C(=O)NCCCO)cc2)CC1 [Compound No. 2, 1-[N-(3-Hydroxypropyl)carbamoyl]-4-[1-[3-(isopropylamino)-2-pyridyl]piperazin-4-yl-carbonyl]benzene] | 35 | 40 | – | – | 34 | 42
9 | CC(C)Nc1cccnc1N1CCN(C(=O)c2ccc(C(=O)N(CCO)c3ccccc3)cc2)CC1 [Compound No. 11, 1-[N-(2-Hydroxyethyl)-N-phenylcarbamoyl]-4-[1-[3-(isopropylamino)-2-pyridyl]piperazin-4-yl-carbonyl]benzene] | 43 | 50 | – | – | 20 | 76
10 | CC(C)Nc1cccnc1N1CCN(C(=O)c2ccc(C(=O)N3CCOCC3)cc2)CC1 [Compound No. 76, 4-[1-[3-(Isopropylamino)-2-pyridyl]piperazin-4-yl-carbonyl]-1-(morpholin-4-yl-carbonyl)benzene] | 43 | 52 | – | – | 49 | 79
11 | CC(C)Nc1cccnc1N1CCN(C(=O)c2ccc(C(=O)NCCN(C)C)cc2)CC1 [Compound No. 83, 1-[N-[2-(Dimethylamino)ethyl]carbamoyl]-4-[1-[3-(isopropylamino)-2-pyridyl]piperazin-4-yl-carbonyl]benzene] | 62 | 65 | – | – | 62 | 65
12 | CC(C)Nc1cccnc1N1CCN(C(=O)c2ccc(C(=O)N3CCNCC3)cc2)CC1 [Compound No. 19, 1-[4-[1-[3-(Isopropylamino)-2-pyridyl]piperazin-4-yl-carbonyl]benzoyl]piperazine] | 43 | 52 | 38 | 53 | – | –
13 | COCCN(CCOC)C(=O)c1ccc(C(=O)N2CCN(c3ncccc3NC(C)C)CC2)cc1 [Compound No. 62, 1-[N,N-Bis(2-methoxyethyl)carbamoyl]-4-[1-[3-(isopropylamino)-2-pyridyl]piperazin-4-yl-carbonyl]benzene] | 41 | 58 | – | – | 53 | 60
14 | COCCNC(=O)c1ccc(C(=O)N2CCN(c3ncccc3NC(C)C)CC2)cc1 [Compound No. 61, 4-[1-[3-(Isopropylamino)-2-pyridyl]piperazin-4-yl-carbonyl]-1-[N-(2-methoxyethyl)carbamoyl]benzene] | 32 | 65 | – | – | 33 | 81
